Read-outs that look alike come from different tables or passages of the source.
How the values were obtained:
[1] = Single dose inhalation study: LNP component lipid levels in blood, lung, liver, spleen; format: in vivo, cynomolgus monkey; details: for lipid signal in lung remaining: 72 hr; for lipid signal in lung remaining, % of peak: 7 days; for time of peak lipid level in lung tissue: after inhaled Composition A-DNAI1-HA
Experimental: Group 1 animals were terminated at 24-hours post end of exposure.
Levels of the LNP component lipids 4A3-SC7, 14:0 EPC, and DMG-PEG were measured in blood, lung, liver, and spleen samples following administration of Composition-DNAI1-HA. Blood samples were collected at pre-treatment, 0.5 hr, 1 hr, 6 hr, 24 hr, 48 hr, and 7 days postadministration and processed to separate the plasma and blood cell fractions. Spleen and liver samples were collected at 6 hr, 24 hr, 72 hr, and 7 days post-exposure. Lung tissue was sampled in three locations from the right lung of each animal: Caudal lobe, cranial lobe, and middle lobe at each necropsy time point.

[2] = test system: CFTR function in human Bronchial Epithelials (hBE); assay: CFTR function (chloride conductance, MTECC24) in hBE after nebulized CFTR mRNA LNPs; format: cell-based
Experimental: CFTR mRNA was incorporated into various LNP compositions: DODAP-containing Composition B and various non-DODAP lipid nanoparticles (400 μL for Composition A and Composition H) stored in 1× phosphate buffered saline (PBS). The compositions were nebulized using a VitroCell® system with a mesh nebulizer to deliver aerosolized LNPs to primary human Bronchial Epithelials (hBE). CFTR function was measured. The composition of the nanoparticles used in the study is shown below in Table 13.
Experiments were conducted to evaluate the impact of cholesterol on the stability and efficacy of lipid nanoparticle (LNP) compositions. Composition B lipid nanoparticles containing higher molar percentage of cholesterol were created and subjected to test its CFTR function. Chloride conductance was measured with multi transepithelial current clamp system (MTECC24). […] Further, lipid nanoparticles containing 50% molar percentage of cholesterol were created, measured its CFTR function and resulted that increased molar percentage of cholesterol in lipid nanoparticles enhanced CFTR function (FIG. 41). […]
Cystic Fibrosis treatment drugs (Trifkafta or Orkambi) were treated at the time of nebulization. At 24 h post-treatment, chloride conductance was measured with multi transepithelial current clamp system (MTECC24). […]

[3] = test system: hBE cells; assay: Transepithelial electrical resistance (TEER) in hBE; format: cell-based, human; details: W1282X/W1282X and R553X/W1282X hBE; pre-treatment before LNP nebulization
Experimental: As used herein, the phrase “transepithelial electrical resistance (TEER)” is a measurement method of electrical resistance across a cellular monolayer to confirm the integrity and permeability of a monolayer. Measurement of TEER is described, for example, in Srinivasan et al. J. Lab. Automation 20:107-126 (2015).
Cystic Fibrosis treatment drugs (Trifkafta or Orkambi) were treated at the time of nebulization. At 24 h post-treatment, chloride conductance was measured with multi transepithelial current clamp system (MTECC24). In both cell lines, nebulization of lipid nanoparticles containing CFTR mRNA rescued CFTR function.
To determine whether aerosolized lipid nanoparticles affect cell toxicity, six ΔF508/ΔF508 homozygous genotypes hBE cells were dosed lipid nanoparticles and measured electrical resistance across a cellular monolayer and released lactic acid dehydrogenase (LDH).
To determine whether mucus production affects transfection efficiency of lipid nanoparticles, W1282X/W1282X hBEs and R553X/W1282X hBEs cells were pre-treated Dithiothreitol (DTT) before lipid nanoparticles were nebulized (experimental scheme shown in FIG. 49). […] Cell toxicities were measured by transepithelial electrical resistance (TEER).

## CCCCCCCCCCCCCC(=O)OCC(COP(=O)(OCC)OCC[N+](C)(C)C)OC(=O)CCCCCCCCCCCCC (stereo not shown) [14:0 EPC, 1,2-dimyristoyl-sn-glycero-3-ethylphosphocholine]
[1]; high dose
  lipid signal in lung remaining: 2.5%
  lipid signal in lung remaining, % of peak: 0.8%
[1]; low dose
  lipid signal in lung remaining: 13.2%
  lipid signal in lung remaining, % of peak: 0.7%
[1]
  time of peak lipid level in lung tissue: 6 h
[1]; all samples except one high dose sample at 6 hr (below assay LOQ)
  lipid level in liver: not detected
[1]; both sexes, cynomolgus monkey, lung, inhaled, 0.34 mg/kg, 6 hr, high dose (group 3), read-out: lipid level in lung
  concentration at 6 hr: 13900 to 66700 ng/g
[1]; both sexes, cynomolgus monkey, plasma, inhaled, 0.34 mg/kg, high dose (group 3), 1 hr, read-out: lipid level in plasma
  concentration at 1 hr: 1.03 ng/mL
[1]; both sexes, cynomolgus monkey, plasma, inhaled, 0.34 mg/kg, high dose (group 3), 6 hr, read-out: lipid level in plasma
  concentration at 6 hr: 1.97 ng/mL
[1]; both sexes, cynomolgus monkey, spleen, inhaled, 0.34 mg/kg, high dose sample at 6 hr, all others not detected, read-out: lipid level in spleen
  concentration at 6 hr: 9.56 ng/g
[1]; high dose (group 3), 1 hr
  lipid level in plasma: 0.99 ng/mL

## O[C@H](CS)[C@H](O)CS (racemic) [DTT, Dithiothreitol]
[2]; W1282X/W1282X and R553X/W1282X hBE, pre-treatment raised from 3 mM to 10 mM
  chloride flux after nebulization of lipid nanoparticles: correlated with higher chloride flux
[3]
  cell toxicity by TEER: cell integrity was not affected

## CC(C)(C)c1cc(C(C)(C)C)c(NC(=O)c2c[nH]c3ccccc3c2=O)cc1O [Ivacaftor]
[2]; R553X/W1282X and W1282X/W1282X hBE, after delivery of lipid nanoparticles
  rescue of CFTR function on addition of CFTR activator: further increased rescue of CFTR function

## CCCCCCCSCC(C)C(=O)OCCOC(=O)CCN(CCCN(C)CCCN(CCC(=O)OCCOC(=O)C(C)CSCCCCCCC)CCC(=O)OCCOC(=O)C(C)CSCCCCCCC)CCC(=O)OCCOC(=O)C(C)CSCCCCCCC (stereo not shown) [Composition 4A3-SC7]
[1]; high dose
  lipid signal in lung remaining: 0.6%
[1]; low dose
  lipid signal in lung remaining: 13%
[1]; 7 days post-administration, all samples except one caudal lobe sample in high dose group
  lipid level in lung: below the limit of quantitation
[1]
  time of peak lipid level in lung tissue: 6 h
[1]; both sexes, cynomolgus monkey, lung, inhaled, 0.34 mg/kg, 6 hr post-exposure, high dose group, read-out: lipid level in lung
  concentration at 6 hr: 9550 to 67800 ng/mL
